Test results as given in US20100120679A1, “Targeting NBS1-ATM Interaction To Sensitize Cancer Cells To Radiotherapy And Chemotherapy” (SOUTHERN RESEARCH INSTITUTE, priority 2006, published 2010).
Peptide text beside a SMILES is read from it. * marks the point of attachment. Biotin = O=C1N[C@H]2[C@H](CS[C@H]2CCCCC(=O)*)N1

Key:
HeLa cells [1] = assay: Length of time the peptides remain in cells (degradation, immunofluorescence)
Experimental: HeLa cells were treated with 10 μM R9, wtNIP, or scNIP for one hour and harvested at indicated time points before they were analyzed by immunofluorescence microscopy staining with an […].
Immunofluorescence microscopy: Exponentially growing cultures of cells were plated on sterile, […] coverslips, and incubated for 24 hours at 37° C. in 5% CO2 humidified air before they are treated with the NIP peptides at room temperature. Coverslips were washed with PBS and fixed with 4% paraformaldehyde-0.25% Triton X-100 for 15 minutes at room temperature, blocked for 30 minutes at room temperature, and incubated with FITC-conjugated streptavidin or anti-γH2AX and phospho-NBS1 antibodies (Rockland Immunochemicals, Gilbertsville, Pa.) for 1 hour at room temperature. Coverslips were then mounted with Vectashield Elite (Vector Labs, Burlingame, Calif.) and observed with a Leica fluorescence microscope. Images were captured at 40× magnification using a Q Imaging Retiga Exi digital camera and analyzed with Image Pro-Plus 5.1 software.
Because the peptides would be used in radiation studies, the length of time the peptides remain in cells was determined to ensure that the peptides would be present throughout the DNA repair process after IR.

HeLa cells [2] = assay: Colony formation assay (radiosensitivity), HeLa
Experimental: Shown in A (HeLa), C (MO59J) and D (GM9607) are the susvival curves after indicated doses of radiation. Error bars represent +/−1 SEM, graphed are the mean of three independent experiments.
Colony formation assays: To determine the radiosensitivity, the colony forming assay was incorporated. Cells were harvested with 0.125% trypsin-0.05% EDTA, pelleted and re-suspended in 1 ml fresh media with a 22 g needle to disperse clumps prior to hemocytometer counting in trypan blue. Cells were then plated at limiting dilutions in […] and allowed to adhere overnight. Cultures were treated with PBS, R9, wtNIP, or scNIP for 1 hour, and irradiated (0-6Gy). Fresh peptides were added every four hours until 24 hours after IR, when the medium was replaced with peptide-free medium. Cultures were incubated for 10-12 days, harvested and stained with 0.5% crystal violet in methanol. Colony number was determined with a dissecting microscope. A population of >50 cells was counted as one colony, and the number of colonies was expressed as a percentage of the value for untreated mock irradiated control cells. The surviving curves were plotted by linear regression analyses and the D0 value represents the radiation dose that leads to 37% of survival. To determine the radiosensitizing potential of the peptides in comparison to other small molecule inhibitors, the sensitizing enhancement ratio (SER) was calculated based on the dose of radiation required to reduce survival to 37% in the presence of scNIP or wtNIP. The following formula was used: […]
Statistics: To establish statistical significance, Student's t-test was incorporated. The data were first fit to each experimental group over a dose range of 0-6Gy. Significant differences were established at p<0.05.
FIG. 6A depicts the survival curves for HeLa cells treated with R9, wtNIP, or scNIP over a dose range of 0 to 6 Gy.

[3] = tested on: prostate cancer cell line DU-145; assay: Colony formation assay (radiosensitivity), DU-145; type: cell-based, human
Experimental: (§1) Colony number was determined with a dissecting microscope. […] The following formula was used: […]
Radiation survival curves were characterized based on Do to define the effect of NIP effect on radiosensitivity. D0 represents the mean lethal dose required for 37% survival and is a measure of the intrinsic radiosensitivity of the cell. D0 values for HeLa treated with wtNIP were 1.9 compared with 3.0 for cells treated with scNIP. To establish the statistical significance of wtNIP-induced radiosensitivity, Student's t test (paired two-sample for means) was incorporated. […] Significant differences (p<0.05) in clonogenic survival were observed between cells treated with wtNIP and those treated with DMEM, R9, or scNIP. The SER was 1.58. […] These observations have been confirmed in the prostate cancer cell line DU-145 with an SER of 1.46. Taken as a whole, they provide strong evidence for the radiosensitizing potential of the wtNIP peptide.

[4] = tested on: γ-H2AX foci in HeLa cells; assay: IR-induced γ-H2AX focus formation, HeLa; type: cell-based, human
From the text: Error bars represent +/−1 SD, graphed are the mean of three independent experiments.
wtNIP Inhibits IR-Induced γ-H2AX and NBS1 pSer343 Focus Formation: One of the earliest responses to IR-induced DNA damage is the formation of γ-H2AX foci, which requires functional ATM (Burma et al., 2001; Furuta et al., 2003). […] Immunofluorescence microscopy was used to detect the presence of γ-H2AX foci in mock-irradiated or irradiated cells in the presence of R9, wtNIP or scNIP. […] Therefore, IR-induced γ-H2AX focus formation can be inhibited by wt-NIP.

[5] = tested on: GM9607 cells (defective ATM); assay: Colony formation assay (radiosensitivity), GM9607; type: cell-based, human
Experimental: as §1
(§2) To test this possibility, colonyforming assays were performed in cell lines with defective ATM (GM9607) or DNA-PKcs (M059J). […] Because GM9607 cells are ATM-deficient and have functional ATR and DNA-PKcs, these observations strongly indicate that wtNIP can specifically target ATM, but not ATR or DNA-PKcs, to achieve radiosensitization.

[6] = tested on: M059J cells (defective DNA-PKcs); assay: Colony formation assay (radiosensitivity), M059J; type: cell-based
Experimental: as §1, §2

NBS1-ATM interaction = molecular target: T1, NBS1-ATM interaction (Homo sapiens, UniProt Q13315); assay: Co-immunoprecipitation of ATM with NBS1 in peptide-treated cells; type: cell-based
T1 construct: endogenous in cells; host or cells: HeLa
Experimental: HeLa cells treated with the NIP peptides were irradiated (0 or 6Gy). Immunoprecipitation was performed with a rabbit NBS1 antibody, and Western blotting was performed with monoclonal antibodies against ATM, NBS1 or MRE11.
Immunoprecipitation and Western blotting: For co-immunoprecipitation of ATM, NBS1 and MRE11, cells were lysed 1 hour in ice-cold lysis buffer, which consisted of 10 mM Tris-HCl (pH 7.5), 100 mM NaCl, 5 mM EDTA, 0.5% NP-40, 5 mM Na3VO4, 1 mM NaF, and 1 mM PMSF. After centrifugation, supernatants were incubated with indicated antibodies. After extensive washing with the lysis buffer, immunoprecipitates were analyzed by immunoblot using specific antibodies. For western blotting analysis, samples (cell lysates or immunoprecipitates) were separated on 4-12% SDS-poly-acrylamide gels, transferred to nitrocellulose membranes, and probed with various antibodies.
wtNIP Abrogated the NBS1-ATM Interaction: To investigate whether R9-conjugated NIP peptides could inhibit NBS1-ATM interactions, coimmunoprecipitation experiments were performed in cells treated with the NIP peptides. Four hours after peptide treatment, HeLa cells were harvested and subjected to immunoprecipitation using an anti-NBS1 antibody. The immunoprecipitates were then blotted with anti-ATM, NBS1, and MRE11 antibodies.

T1 sequence (Q13315 whole entry): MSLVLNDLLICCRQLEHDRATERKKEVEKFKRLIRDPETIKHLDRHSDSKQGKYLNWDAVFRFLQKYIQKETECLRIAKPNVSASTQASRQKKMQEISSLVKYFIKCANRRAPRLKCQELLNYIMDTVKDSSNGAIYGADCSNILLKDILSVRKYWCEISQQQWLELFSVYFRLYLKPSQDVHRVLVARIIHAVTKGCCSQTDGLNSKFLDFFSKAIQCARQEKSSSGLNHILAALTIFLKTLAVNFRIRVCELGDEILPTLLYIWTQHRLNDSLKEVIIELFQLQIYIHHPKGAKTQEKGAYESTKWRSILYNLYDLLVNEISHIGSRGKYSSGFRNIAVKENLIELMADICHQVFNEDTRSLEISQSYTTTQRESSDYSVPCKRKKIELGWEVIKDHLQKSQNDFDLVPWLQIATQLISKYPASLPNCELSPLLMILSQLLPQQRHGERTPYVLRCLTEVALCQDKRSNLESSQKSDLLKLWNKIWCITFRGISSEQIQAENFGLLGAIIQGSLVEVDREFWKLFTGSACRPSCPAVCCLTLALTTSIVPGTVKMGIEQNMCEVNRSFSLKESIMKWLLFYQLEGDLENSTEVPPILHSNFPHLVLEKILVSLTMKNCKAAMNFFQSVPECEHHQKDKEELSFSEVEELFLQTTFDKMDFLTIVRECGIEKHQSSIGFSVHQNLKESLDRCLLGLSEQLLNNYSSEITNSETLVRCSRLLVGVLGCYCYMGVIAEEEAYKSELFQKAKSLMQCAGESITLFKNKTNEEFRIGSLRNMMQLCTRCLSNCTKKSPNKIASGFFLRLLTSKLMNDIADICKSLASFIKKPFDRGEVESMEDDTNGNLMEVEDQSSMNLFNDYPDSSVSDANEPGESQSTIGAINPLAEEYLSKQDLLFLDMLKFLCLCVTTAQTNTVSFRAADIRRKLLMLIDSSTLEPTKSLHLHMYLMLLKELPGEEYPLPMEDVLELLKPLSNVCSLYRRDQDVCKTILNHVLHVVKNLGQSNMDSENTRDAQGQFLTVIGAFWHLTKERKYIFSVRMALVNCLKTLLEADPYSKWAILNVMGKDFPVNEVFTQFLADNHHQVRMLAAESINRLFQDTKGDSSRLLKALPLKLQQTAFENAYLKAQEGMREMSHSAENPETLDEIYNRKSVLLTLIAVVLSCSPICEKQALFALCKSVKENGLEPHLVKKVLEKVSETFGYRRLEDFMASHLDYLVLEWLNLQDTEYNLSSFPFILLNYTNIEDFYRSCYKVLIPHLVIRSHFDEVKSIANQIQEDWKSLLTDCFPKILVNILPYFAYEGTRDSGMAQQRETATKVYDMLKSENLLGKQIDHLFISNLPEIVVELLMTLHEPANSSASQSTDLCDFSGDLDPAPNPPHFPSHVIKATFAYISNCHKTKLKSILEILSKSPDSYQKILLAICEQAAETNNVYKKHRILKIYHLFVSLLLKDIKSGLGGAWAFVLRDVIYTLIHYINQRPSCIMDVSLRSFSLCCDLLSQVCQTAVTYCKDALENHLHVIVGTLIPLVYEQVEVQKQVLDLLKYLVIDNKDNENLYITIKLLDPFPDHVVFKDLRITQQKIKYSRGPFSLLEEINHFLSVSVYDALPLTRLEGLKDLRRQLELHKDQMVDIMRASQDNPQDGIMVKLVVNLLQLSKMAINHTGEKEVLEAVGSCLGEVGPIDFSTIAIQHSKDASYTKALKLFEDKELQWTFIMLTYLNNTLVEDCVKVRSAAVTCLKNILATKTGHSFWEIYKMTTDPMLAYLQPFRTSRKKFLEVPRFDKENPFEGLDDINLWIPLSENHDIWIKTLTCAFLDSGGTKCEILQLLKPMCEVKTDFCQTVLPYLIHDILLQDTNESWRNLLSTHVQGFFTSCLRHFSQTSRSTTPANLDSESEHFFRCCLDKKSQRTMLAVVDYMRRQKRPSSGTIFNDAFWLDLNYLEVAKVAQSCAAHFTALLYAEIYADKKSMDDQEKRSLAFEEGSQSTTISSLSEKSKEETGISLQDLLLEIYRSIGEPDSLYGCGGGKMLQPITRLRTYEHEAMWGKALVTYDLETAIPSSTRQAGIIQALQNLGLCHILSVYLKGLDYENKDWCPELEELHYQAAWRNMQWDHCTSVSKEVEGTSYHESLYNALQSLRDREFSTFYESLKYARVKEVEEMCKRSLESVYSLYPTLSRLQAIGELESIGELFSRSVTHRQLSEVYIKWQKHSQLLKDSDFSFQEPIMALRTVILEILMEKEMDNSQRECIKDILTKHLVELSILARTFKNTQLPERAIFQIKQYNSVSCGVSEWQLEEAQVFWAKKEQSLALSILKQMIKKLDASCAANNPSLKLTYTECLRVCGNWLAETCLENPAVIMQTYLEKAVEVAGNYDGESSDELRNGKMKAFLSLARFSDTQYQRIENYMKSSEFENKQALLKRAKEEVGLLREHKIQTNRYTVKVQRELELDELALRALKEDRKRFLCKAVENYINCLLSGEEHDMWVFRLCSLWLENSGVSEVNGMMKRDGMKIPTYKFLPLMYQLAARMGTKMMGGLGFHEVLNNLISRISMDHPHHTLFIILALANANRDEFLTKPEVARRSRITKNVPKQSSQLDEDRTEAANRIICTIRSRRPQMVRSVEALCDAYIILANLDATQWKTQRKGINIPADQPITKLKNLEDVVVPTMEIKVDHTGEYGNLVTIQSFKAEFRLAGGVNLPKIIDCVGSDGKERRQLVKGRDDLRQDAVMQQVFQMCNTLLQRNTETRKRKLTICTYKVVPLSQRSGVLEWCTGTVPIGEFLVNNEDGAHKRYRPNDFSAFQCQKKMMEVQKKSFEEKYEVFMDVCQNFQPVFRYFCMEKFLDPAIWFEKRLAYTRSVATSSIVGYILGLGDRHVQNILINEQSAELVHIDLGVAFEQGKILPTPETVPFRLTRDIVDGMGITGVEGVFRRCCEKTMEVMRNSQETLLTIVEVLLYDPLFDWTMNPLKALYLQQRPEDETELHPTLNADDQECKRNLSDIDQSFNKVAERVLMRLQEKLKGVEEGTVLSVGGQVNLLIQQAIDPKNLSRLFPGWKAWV

In the case of CC(C)C[C@H](NC(=O)[C@H](CC(=O)O)NC(=O)[C@H](CC(=O)O)NC(=O)[C@H](C)NC(=O)[C@H](CC(C)C)NC(=O)[C@H](CO)NC(=O)[C@H](CCC(=O)O)NC(=O)[C@H](CCC(=O)O)NC(=O)[C@H](CCCCN)NC(=O)[C@H](CCCNC(=N)N)NC(=O)[C@H](CCCNC(=N)N)NC(=O)[C@H](CCCNC(=N)N)NC(=O)[C@H](CCCNC(=N)N)NC(=O)[C@H](CCCNC(=N)N)NC(=O)[C@H](CCCNC(=N)N)NC(=O)[C@H](CCCNC(=N)N)NC(=O)[C@H](CCCNC(=N)N)NC(=O)[C@H](CCCNC(=N)N)NC(=O)CCCC[C@@H]1SC[C@@H]2NC(=O)N[C@@H]21)C(=O)O [wtNIP] (Biotin-RRRRRRRRRKEESLADDL-OH), the “presence of peptides in cells” value (HeLa cells [1]) is reported as “strong distribution”, the “D0 (mean lethal dose required for 37% survival)” value (HeLa cells [2]) is reported as 1.9 and the “SER (dose required to reduce survival to 37%, scNIP versus wtNIP)” value (HeLa cells [2]) is reported as 1.58. For the same molecule, the sensitizer enhancement ratio (HeLa cells [2]; 2Gy) was 1.66, the sensitizer enhancement ratio (HeLa cells [2]; 4Gy) was 2.61 and the sensitizer enhancement ratio (HeLa cells [2]; 6Gy) was 3.12. The “effect on radiosensitivity / IR-induced survival” value (HeLa cells [2]; dose range 0 to 6 Gy) was “can significantly decrease IR-induced survival”, the SER [3] was 1.46 and the “average number of γ-H2AX foci/nucleus” value ([4]; 10 μM peptide, 30 minutes after 6Gy IR) was 6.9 foci/nucleus. The “inhibition of γ-H2AX foci formation” value ([4]; 30 minutes after treatment with 6Gy IR) was “can inhibit γ-H2AX foci formation”, the change in radiosensitivity [5] was “no change in radiosensitivity” and the SER [6] was 1.83. The change in radiosensitivity [6] was “increase in radiosensitivity”, the “ATM-NBS1 association (anti-NBS1 immunoprecipitation, anti-ATM blot)” value (NBS1-ATM interaction; HeLa cells treated with IR) was “effect similar to that in unirradiated cells” and the “ATM-NBS1 association (anti-NBS1 immunoprecipitation, anti-ATM blot)” value (NBS1-ATM interaction; HeLa cells, four hours after peptide treatment, unirradiated) was “NBS1 was no longer able to bring down ATM”.
